Measurements: PMC10314207, “The Dynamic Intestinal Absorption Model (Diamod®), an in vitro tool to study the interconnected kinetics of gastrointestinal solubility, supersaturation, precipitation, and intestinal permeation processes of oral drugs” (International Journal of Pharmaceutics: X, 2023)
In brackets after ≈: the same amount, converted by molar mass. Counter-ions that a name gives are not always drawn. Blank lines part the entries; values can stand above or below the compound they belong to.

Tests used:
[1] = water intake versus no water, cited from earlier work
[2] = high carbohydrate meal; ref Carver et al. (1999); cited from earlier work
[3] = Diamod® fed state: indinavir sulfate with protein meal (Ensure® plus) or carbohydrate meal, high or low bile salts
[4] = Diamod® fasted state: 20 mL Sporanox® solution without or with 240 mL water (stomach, duodenum, permeate); format: in vitro ADME
Procedure: The stomach vessel accepts gastric secretions (Flow rate F1) and is continuously emptied (Flow rate F2) into the second reactor vessel which simulates the lumen of the duodenum and the blood stream that accepts the permeated fraction. […] The geometry of the inner donor compartment is designed to contain biorelevant duodenal volumes (30 mL), to generate a permeation surface area of 65 cm^2 and to result in a permeation surface area to donor volume ratio of 2 cm^−1.

[5] = ref Bevernage et al., 2012; cited from earlier work
[6] = fed, carbohydrate meal, high bile salts

SMILES: CC(O)COC[C@H]1O[C@@H]2O[C@H]3[C@H](O)[C@@H](O)[C@@H](O[C@H]4[C@H](O)[C@@H](O)[C@@H](O[C@H]5[C@H](O)[C@@H](O)[C@@H](O[C@H]6[C@H](O)[C@@H](O)[C@@H](O[C@H]7[C@H](O)[C@@H](O)[C@@H](O[C@H]8[C@H](O)[C@@H](O)[C@@H](O[C@H]1[C@H](O)[C@H]2O)O[C@@H]8COCC(C)O)O[C@@H]7COCC(C)O)O[C@@H]6COCC(C)O)O[C@@H]5COCC(C)O)O[C@@H]4COCC(C)O)O[C@@H]3COCC(C)O (stereo partly drawn) [2-HP-β-CD, 2-hydroxypropyl-β-cyclodextrin]
fold decrease in duodenal AUC0-3h ([1]; in vivo duodenal aspirates, ref Berben et al. (2018c)): 2.3 fold

decrease in average duodenal solute concentration AUC0–240min ([3]; fed high protein meal versus fasted): 34.2%
SMILES: CC(C)(C)NC(=O)[C@@H]1CN(Cc2cccnc2)CCN1C[C@@H](O)C[C@@H](Cc1ccccc1)C(=O)N[C@H]1c2ccccc2C[C@H]1O [indinavir sulfate]
increase of Tmax [2]: approximately 3 h

Cmax total in the duodenum [3, 6]: 504.3 ± 3.1 µM
Cmax total in the stomach [3, 6]: 1225.5 ± 19.9 µM
Cmax total in the duodenum ([3]; fed, high protein meal): 514.8 ± 16.5 µM
Cmax total in the stomach ([3]; fed, high protein meal (Ensure® Plus)): 1386.0 ± 120.11 µM
duodenal solute concentrations ([3]; fed, high protein meal, after bile salts decreased towards fasted levels): around 100 μM
supersaturation state in the duodenum ([3]; fed, high protein meal, period of high bile salts): not in a state of supersaturation
SMILES: CC(C)(C)NC(=O)[C@@H]1CN(Cc2cccnc2)CCN1C[C@@H](O)C[C@@H](Cc1ccccc1)C(=O)N[C@H]1c2ccccc2C[C@H]1O [indinavir]
supersaturation state in the duodenum [3, 6]: supersaturated throughout the transit through the duodenum
supersaturation state in the duodenum ([3]; fed, carbohydrate meal, low bile salts): supersaturating throughout the transit through the duodenum

additional precipitation in the duodenum upon water intake ([4]; difference of solute and total AUC reduction): 24.0%
dissolution state during transit through the stomach ([4]; independently of water intake): completely dissolved
decrease in AUC0-180min of permeated drug ([4]; water intake versus no water): 3.2%
decrease in stomach solute AUC0-180min ([4]; water intake versus no water): 47%
decrease in stomach total AUC0-180min ([4]; water intake versus no water): 45%
decrease of duodenal AUC0-180min of solute concentration ([4]; water intake versus no water): 56.1%
fold decrease of stomach AUC0-180min of solute itraconazole ([4]; water intake versus no water): 1.9 fold
reduction of duodenal AUC0-180min of total concentration ([4]; water intake versus no water): 32.1%
SMILES: CCC(C)n1ncn(-c2ccc(N3CCN(c4ccc(OCC5COC(Cn6cncn6)(c6ccc(Cl)cc6Cl)O5)cc4)CC3)cc2)c1=O (stereo not drawn) [itraconazole]
solubility in FaSSGF [5]: 2.7 µM (≈ 1.91 µg/mL)
reduction (times) in average dissolved gastric AUC0-3h ([1]; in vivo, ref Berben et al., 2017): 1.8 times
